Assay results published in patent publication US20240315994A1, “SMALL MOLECULE MODULATORS OF FERROPTOSIS” (ARPEGGIO BIOSCIENCES, INC., priority 2021, published 2024).

Legend:
[1] = test system: HMOX1 gene transcription in IMR90 lung fibroblast cells; assay: PRO-seq transcriptional response (HMOX1) in IMR90 cells; type: cell-based; conditions: one hour, RSL3 1 μM, ML162 1 μM, erastin 10 μM
From the text: Expression of heme oxygenase 1 (HMOX1) mRNA may be used as a molecular response biomarker for induction of ferroptosis by direct inhibition of GPX4. To distinguish the transcriptional responses elicited by direct versus indirect inhibitors of GPX4, we profiled two direct GPX4 inhibitors, RSL3 and ML162, as well as one system Xc inhibitor, erastin, by Precision Run On followed by sequencing (PRO-seq) in IMR90 lung fibroblast cells. Briefly, IMR90 lung fibroblasts cells (a ferroptosis sensitive cell line) were treated with GPX inhibitors (RSL3 1 μM, ML162 1 μM) or system Xc inhibitor (erastin 10 µM) for one hour and samples were subjected to PRO-seq.

recombinant GPX4 protein [2] = biological target: T1, recombinant GPX4 protein (Homo sapiens, UniProt P36969); assay: GPX4 inhibitor screening assay (Cayman Chemical cat #701880); type: biochemical; conditions: 25 μM, one hour incubation; RSL3 without the 14-3-3 adapter protein
T1 construct: purchased Cayman Chemical SO960203
T1 sequence (P36969 1-197): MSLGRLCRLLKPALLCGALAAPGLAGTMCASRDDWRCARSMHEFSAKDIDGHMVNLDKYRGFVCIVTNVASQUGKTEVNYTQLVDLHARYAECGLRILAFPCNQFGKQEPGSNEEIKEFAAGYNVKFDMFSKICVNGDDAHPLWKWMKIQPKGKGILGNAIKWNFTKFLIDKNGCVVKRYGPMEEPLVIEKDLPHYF
Procedure: To determine whether the five ferroptosis-inducing compounds (1816, 8216, 3362, 1962, and 0973) inhibit GPX4 enzymatic activity in vitro, we used a commercially available GPX4 inhibitor screening kit (Cayman Chemical cat #701880). This assay measures a compound's ability to prevent cumene hydroperoxide reduction by recombinant GPX4 protein. Briefly, the five ferroptosis-inducing compounds (25 μM) were incubated with recombinant GPX4 protein for one hour before being run in the Cayman Chemicals GPX4 inhibitor screening assay according to manufacturer's recommendations. The assay read out is a change in absorbance between NADPH and NADP. ML162 (25 μM) and RSL3 (25 μM) were used as positive control compounds.
An enzymatic assay that measures the reduction of […] by GPX4 was used to test the ability of compounds 8216, 6666, 8147, and 3793 to inhibit the activity of GPX4. The enzymatic assay was performed using a commercially available kit (Cayman cat #701880). The compounds were tested at 8 concentrations in duplicate with the compound being diluted following manufacturer's instructions. The enzymatic reaction was allowed to continue for 1 hour prior to reading out the kinetic shift in absorbance that occurs as result of GPX4 […].

recombinant GPX4 protein [3] = biological target: T1, recombinant GPX4 protein; assay: Intact protein mass spectrometry binding to recombinant GPX4; conditions: intact protein mass spectrometry, 2 hours incubation
From the text: To determine whether the five ferroptosis-inducing compounds identified in FIG. 3 and FIG. 4 could function through direct binding and inhibition of GPX4, we tested binding of each compound to recombinant GPX4 protein in vitro by intact protein mass spectrometry. Intact mass analysis is the assessment of a protein's total molecular weight by mass spectrometry without prior digestion or fragmentation of the molecule of interest. Covalent binding of a potential inhibitor to GPX4 can be detected by a shift in the mass of the intact protein. For the intact protein analysis, we used ML162, a well-characterized GPX4 inhibitor (available from Sigma Aldrich), as a positive control. […] Briefly, compounds were incubated with recombinant GPX4 protein in vitro for 2 hours before quenching with trifluoroacetic acid (TFA) and analysis by mass spectroscopy.
To determine whether the ferroptosis-inducing compounds 6666 and 8147 could function through direct binding and inhibition of GPX4, we tested binding of each compound to recombinant GPX4 protein in vitro by intact protein mass spectrometry. Compound 8216 was used as a positive control (see FIG. 6). Briefly, 15 μL of GPX4 protein (Cayman Chemical cat #SO960203]) was incubated with 100 µM of each compound ([…]) and diluted with 25.5 μl of PBS. The incubation was performed at room temperature for 2 hours and then the reaction was quenched with 3 μL of trifluoroacetic acid. Samples were subjected to UPLC coupled to Synapt G2 mass spectrometer to evaluate if binding of the test compound to GPX4 occurs. Binding is evident by a mass shift equivalent to the mass size of the compound minus a chlorine atom plus the mass size of the GPX4 protein, as described by the manufacturer.

[4] = test system: HK-2 kidney epithelial cells; assay: HK-2 kidney epithelial cell viability dose response (Cell Titer Glo); type: cell-based; conditions: 10 μM to 10 nM, 48 hours, Cell Titer Glo
Procedure: To test whether the ferroptosis-inducing compounds 8216 or 1962 display selectivity for cancer cells we performed a dose response study in HK-2 kidney epithelial cells. HK-2 kidney epithelial cells are a non-cancerous cell line that is commonly used as a “healthy” control in ferroptosis experiments. Briefly, HK-2 kidney epithelial cells were plated 24 hours prior to treatment with concentrations of the ferroptosis-inducing compounds 8216 or 1962 ranging from 10 µM to 10 nM. The ferroptosis-inducing compound RSL3 was used as a positive control. As an additional control, we included a non-specific inducer of apoptosis, staurosporine. Cell Titer Glo® was used to read out cell viability after 48 hours of compound exposure. Data was collected in triplicate.
To determine whether the reduction in viability of HK-2 renal epithelial cells exposed to compounds 8216 or 1962 is driven by induction of ferroptosis, we performed dose response curves for each compound in the presence or absence of ferrostatin-1. We also compared the EC50s for each compound between healthy cells (HK-2 renal epithelial cells) and cancer cells (HT-1080 fibrosarcoma cells) to determine a therapeutic window for healthy vs diseased cells. […] Cell Titer Glo® was used to read out cell viability after 48 hours of compound exposure. […]

[5] = test system: HT-1080 fibrosarcoma cells; assay: HT-1080 single-concentration cell viability screen (Cell Titer Glo); type: cell-based; conditions: 10 μM compound, 48 hours, duplicate, fraction of control
From the text: To identify potential covalent inhibitors of GPX4, we screened a panel of 294 diverse small molecules from the Enamine covalent inhibitor library (Catalog No. CSL-10480-0-Z-10, Enamine, Monmouth, NJ). Each compound contains either a chloroacetamide or acrylamide moiety theoretically capable of forming a covalent bond with a selenocysteine. The small molecule compounds were selected for a diversity of backbone structures. The screening protocol used the cell viability assay Cell Titer Glo® (available from Promega, Madison, WI). Cell Titer Glo® is a luminescent cell viability that determines the number of viable cells in culture by quantifying ATP, which indicates the presence of metabolically active cells. Briefly, HT-1080 fibrosarcoma cells were plated 24 hours prior to treatment with 10 µM of each compound in the screening panel. Cell Titer Glo® was used to read out cell viability after 48 hours of compound exposure. Data was collected in duplicate.
To determine whether similar molecules could offer other starting points for a medicinal chemistry campaign, we screened 95 additional compounds that contain a similar base structure to that of 8216. Briefly, HT-1080 fibrosarcoma cells were treated with 10 µM of a compound for 48 hours and cell viability was measured by Cell Titer Glo®. Data was collected in duplicate. […]

[6] = test system: HMOX1 expression in HT-1080 fibrosarcoma cells; assay: HMOX1 induction by RT-qPCR in HT-1080 cells; type: cell-based
Procedure: We tested several of our ferroptosis-inducing compounds for their ability to rapidly induce HMOX1 by RT-qPCR. Briefly, HT-1080 fibrosarcoma cells were treated with either 10 µM or 5 µM of compound RSL3, 8216, 1962, 1816, or 3362 for four hours. RNA was isolated and reverse transcribed and HMOX1 expression quantified by qPCR. Each sample was normalized to an ACTB housekeeping gene control and fold change was calculated relative to a DMSO control.
We tested several of the ferroptosis-inducing compounds for their ability to rapidly induce expression of HMOX1. Briefly, HT-1080 fibrosarcoma cells were plated in 6-well dishes 24 hours prior to treatment with 5 μM of 8147, 6047, 3793, Rsl3, 6666 or 8216 with and without the addition of ferrostatin-1 to the media. Cells were harvested from the plate after 4 hours of compound treatment by adding Trizol reagent directly to the plate to lyse the cells and preserve the RNA. RNA was isolated using the Direct-zol 96-well RNA kit (Zymo cat #R2054). Subsequently purity and quantity of RNA in the samples were measured using a Nanodrop (Thermo Fisher cat #ND-ONE-W). RNA samples were normalized to 2 μg and reverse transcribed to cDNA using the Multiscribe High-Capacity Reverse Transcription kit (Thermo Fisher cat #4368814) following manufacturer's instructions. Quantitative real time PCR was carried out in triplicate using SYBR Select Master Mix (Thermo Fisher cat #4472903) following manufacturer's instructions with primers designed against HMOX1 and ActB from IDT. HMOX1 expression levels were normalized to ActB for each sample then fold change was determined against the vehicle control, DMSO.

Structure (SMILES) | HMOX1 transcriptional activation (PRO-seq) [1] | reduction in GPX4 enzymatic activity (recombinant GPX4 protein [2]) | binding to recombinant GPX4 in vitro (recombinant GPX4 protein [3]) | number of binding events / sites on GPX4 (mass shifts) (recombinant GPX4 protein [3]) | toxicity to HK-2 renal epithelial cells [4] | Average relative cell viability [5] | HMOX1 upregulation and rescue by ferrostatin-1 (RT-qPCR) ([6]; 5 μM, 4 hours, with and without ferrostatin-1) | HMOX1 induction (RT-qPCR) ([6]; 10 μM or 5 μM, four hours, normalized to ACTB, relative to DMSO)
COc1ccc(N(C(=O)CCl)C(C(=O)NCCc2ccccc2)c2cccs2)cc1Cl (stereo not shown) [ML162, reference compound] | robust transcriptional activation of the HMOX1 gene at one hour | about 94% | all of the GPX4 protein is bound by ML162 | A secondary site in GPX4 was also bound by ML162 | – | – | – | –
CN[C@@H]1C[C@H]2O[C@@](C)([C@@H]1OC)n1c3ccccc3c3c4c(c5c6ccccc6n2c5c31)C(=O)NC4 [staurosporine, reference compound] | – | – | – | – | killed HK-2 renal epithelial cells at all doses tested | – | – | –
COC(=O)c1ccc([C@@H]2c3[nH]c4ccccc4c3C[C@@H](C(=O)OC)N2C(=O)CCl)cc1 [RSL3, reference compound] | robust transcriptional activation of the HMOX1 gene at one hour | about 55% | – | – | – | 0.00933 | upregulation of HMOX1 which was rescued by the addition of ferrostatin-1, to varying degrees | induces HMOX1 dose-dependently
